For 17 molecules, IC50 and melting point results are on record in patent US20090076006A1, “HSP90 INHIBITORS CONTAINING A ZINC BINDING MOIETY” (priority 2007, published 2009).

Data set [1] concerns HDAC (HeLa nuclear extract). Kind of data set: HDAC fluorimetric assay (inhibition of HDAC enzymatic activity). It counts as biochemical. Conditions: HDAC fluorimetric assay kit. The procedure: (c) An In Vitro Assay which Determines the Ability of a Test Compound to Inhibit HDAC Enzymatic Activity.
HDAC inhibitors were screened using an HDAC fluorimetric assay kit (AK-500, Biomol, Plymouth Meeting, Pa.). Test compounds were dissolved in dimethylsulphoxide (DMSO) to give a 20 mM working stock concentration. Fluorescence was measured on a WALLAC Victor 2 plate reader and reported as relative fluorescence units (RFU). Data were plotted using GraphPad Prism (v4.0a) and IC50's calculated using a sigmoidal dose response curve fitting algorithm. Each assay was setup as follows: Defrosted all kit components and kept on ice until use. Diluted HeLa nuclear extract 1:29 in Assay Buffer (50 mM Tris/Cl, pH 8.0, 137 mM NaCl, 2.7 mM KCl, 1 mM MgCl2). Prepared dilutions of Trichostatin A (TSA, positive control) and tested compounds in assay buffer (5× of final concentration). Diluted Fluor de Lys™ Substrate in assay buffer to 100 uM (50 fold=2× final). Diluted Fluor de Lys™ developer concentrate 20-fold (e.g. 50 μl plus 950 μl Assay Buffer) in cold assay buffer. Second, diluted the 0.2 mM Trichostatin A 100-fold in the 1× Developer (e.g. 10 μl in 1 ml; final Trichostatin A concentration in the 1× Developer=2 μM; final concentration after addition to HDAC/Substrate reaction=1 μM). Added Assay buffer, diluted trichostatin A or test inhibitor to appropriate wells of the microtiter plate. Added diluted HeLa extract or other HDAC sample to all wells except for negative controls. Allowed diluted Fluor de Lys™ Substrate and the samples in the microtiter plate to equilibrate to assay temperature (e.g. 25 or 37° C. Initiated HDAC reactions by adding diluted substrate (25 μl) to each well and mixing thoroughly. Allowed HDAC reactions to proceed for 1 hour and then stopped them by addition of Fluor de Lys™ Developer (50 μl). Incubated plate at room temperature (25° C.) for 10-15 min. Read samples in a microtiter-plate reading fluorimeter capable of excitation at a wavelength in the range 350-380 nm and detection of emitted light in the range 440-460 nm.

The next data set has as its target T1, HSP90 (Homo sapiens, UniProt P07900).
T1 construct: purchased Assay Design SPP-776F
Kind of data set: HSP90 assay (chaperone luciferase refolding / competition binding fluorescence polarization). Conditions: Table B does not say which of the two described. The procedure:
(a) An In Vitro Assay which Determines the Ability of a Test Compound to Inhibit Hsp90 Chaperone Activity.
The Hsp90 chaperone assay was performed to measure the ability of HSP90 protein to refold the heat-denatured luciferase protein. HSP90 was first incubated with different concentrations of test compounds in denaturation buffer (25 mM Tris, pH7.5, 8 mM MgSO4, 0.01% bovine gamma globulin and 10% glycerol) at room temperature for 30 min. Luciferase protein was added to denaturation mix and incubated at 50° C. for 8 min. The final concentration of HSP90 and luciferase in denaturation mixture were 0.375 μM and 0.125 μM respectively. A 5 μl sample of the denatured mix was diluted into 25 μl of renaturation buffer (25 mM Tris, pH7.5, 8 mM MgSO4, 0.01% bovine gamma globulin and 10% glycerol, 0.5 mM ATP, 2 mM DTT, 5 mM KCl, 0.3 μM HSP70 and 0.15 μM HSP40). The renaturation reaction was incubated at room temperature for 150 min, followed by dilution of 10 μl of the renatured sample into 90 μl of luciferin reagent (Luclite, PerkinElmer Life Science). The mixture was incubated at dark for 5 min before reading the luminescence signal on a TopCount plate reader (PerkinElmer Life Science).
(b) HSP90 Competition Binding (Fluorescence Polarization) Assay.
A fluorescein isothiocyanate (FITC) labeled GM was purchase from InvivoGen (ant-fgl-1). The interaction between HSP90 and labeled GM forms the basis for the fluorescence polarization assay. A free and fast-tumbling FITC labeled GM emits random light with respect to the plane of polarization plane of excited light, resulting in a lower polarization degree (mP) value. When GM is bound to HSP90, the complex tumble slower and the emitted light is polarized, resulting in a higher mP value. This competition binding assay was performed in 96-well plate and with each assay contained 10 and 50 nM of labeled GM and purified HSP90 protein (Assay Design, SPP-776F) respectively. The assay buffer contained 20 mM HEPES (pH 7.3), 50 mM KCl, 1 mM DTT, 50 mM MgCl2, 20 mM Na2MoO4, 0.01% NP40 with 0.1 mg/ml bovine gamma-globulin. Compounds are diluted in DMSO and added to the final assay before labeled GM with concentration range from 20 uM to 2 nM. mP value was determined by BioTek Synergy II with background subtraction after 24 hours of incubation at 4° C.

What is called IC50 is the concentration at which inhibition is half-maximal. With `CCNC(=O)c1noc(-c2cc(Cl)c(O)cc2O)c1-c1ccc(OCCCC(=O)NO)cc1` [Compound 1, 5-(5-chloro-2,4-dihydroxyphenyl)-N-ethyl-4-(4-(4-(hydroxyamino)-4-oxobutoxy)phenyl)isoxazole-3-carboxamide], the IC50 is 100 to 1000 nM in data set [1] and ≤ 100 nM at HSP90.
For `CCNC(=O)c1noc(-c2cc(Cl)c(O)cc2O)c1-c1ccc(OCCCCC(=O)NO)cc1` [Compound 2, 5-(5-Chloro-2,4-dihydroxyphenyl)-N-ethyl-4-(4-(5-(hydroxyamino)-5-oxopentyloxy)phenyl)isoxazole-3-carboxamide] the same measures were 1000 to 10000 nM and ≤ 100 nM.
In the case of `CCNC(=O)c1noc(-c2cc(Cl)c(O)cc2O)c1-c1ccc(OCCCCCC(=O)NO)cc1` [Compound 3, 5-(5-Chloro-2,4-dihydroxyphenyl)-N-ethyl-4-(4-(6-(hydroxyamino)-6-oxohexyloxy)phenyl)isoxazole-3-carboxamide], the IC50 is 100 to 1000 nM in data set [1] and ≤ 100 nM at HSP90.
On to `CCNC(=O)c1noc(-c2cc(Cl)c(O)cc2O)c1-c1ccc(OCCCCCCC(=O)NO)cc1` [Compound 4, 5-(5-chloro-2,4-dihydroxyphenyl)-N-ethyl-4-(4-(7-(hydroxylamino)-7-oxoheptyloxy)phenyl)isoxazole-3-carboxamide], for which the IC50 in data set [1] was 100 to 1000 nM; at HSP90 it was ≤ 100 nM.
For `COc1ccc(-c2c(C(=O)NCCC(=O)NO)noc2-c2cc(Cl)c(O)cc2O)cc1` [Compound 5, 5-(5-chloro-2,4-dihydroxyphenyl)-N-(3-(hydroxyl-amino)-3-oxopropyl)-4-(4-methoxyphenyl)isoxazole-3-carboxamide], the IC50 in data set [1] was 1000 to 10000 nM; on HSP90, ≤ 100 nM.
The like results for `COc1ccc(-c2c(C(=O)NCCCC(=O)NO)noc2-c2cc(Cl)c(O)cc2O)cc1` [Compound 6, 5-(5-chloro-2,4-dihydroxyphenyl)-N-(4-(hydroxyamino)-4-oxobutyl)-4-(4-methoxyphenyl)isoxazole-3-carboxamide] were, in that order, 1000 to 10000 nM and ≤ 100 nM.
Turning to `COc1ccc(-c2c(C(=O)NCCCCCC(=O)NO)noc2-c2cc(Cl)c(O)cc2O)cc1` [Compound 8, 5-(5-chloro-2,4-dihydroxyphenyl)-N-(6-(hydroxylamino)-6-oxohexyl)-4-(4-methoxyphenyl)isoxazole-3-carboxamide], the IC50 in data set [1] was 100 to 1000 nM; on HSP90, ≤ 100 nM.
Turning to `COc1ccc(-c2c(C(=O)NCCCCCCC(=O)NO)noc2-c2cc(Cl)c(O)cc2O)cc1` [Compound 9, 5-(5-chloro-2,4-dihydroxyphenyl)-N-(7-(hydroxylamino)-7-oxoheptyl)-4-(4-methoxyphenyl)isoxazole-3-carboxamide], the IC50 (in data set [1]; on HSP90) was ≤ 100 nM in each case.
`COc1ccc(-c2c(C(=O)NCCCCCCCC(=O)NO)noc2-c2cc(Cl)c(O)cc2O)cc1` [Compound 10, 5-(5-chloro-2,4-dihydroxyphenyl)-N-(8-(hydroxylamino)-8-oxooctyl)-4-(4-methoxyphenyl)isoxazole-3-carboxamide]: the IC50 (in data set [1]; on HSP90) was ≤ 100 nM in each case.
What is called melting point is the temperature, or range, at which the solid turns liquid. `COc1ccc(-c2c(C(=O)N3CCN(c4ncc(C(=O)NO)cn4)CC3)noc2-c2cc(Cl)c(O)cc2O)cc1` [Compound 11, 2-(4-(5-(5-chloro-2,4-dihydroxyphenyl)-4-(4-methoxyphenyl)isoxazole-3-carbonyl)piperazin-1-yl)-N-hydroxypyrimidine-5-carboxamide] showed a melting point of 186 to 190 °C. In addition, the IC50 in data set [1] was ≤ 100 nM. The IC50 at HSP90 lay within 100 to 1000 nM.
Consider `COc1ccc(-c2c(C(=O)NCC3CCN(c4ncc(C(=O)NO)cn4)CC3)noc2-c2cc(Cl)c(O)cc2O)cc1` [Compound 13, 5-(5-Chloro-2,4-dihydroxyphenyl)-N-((1-(5-(hydroxycarbamoyl)pyrimidin-2-yl)piperidin-4-yl)methyl)-4-(4-methoxyphenyl)isoxazole-3-carboxamide], for which the melting point is 148 to 151 °C. Further, the IC50 in data set [1] was ≤ 100 nM. Moreover, the IC50 on HSP90 was in the range of 100 to 1000 nM.
For `CCNC(=O)c1noc(-c2cc(C(C)C)c(O)cc2O)c1-c1ccc(CNCCC(=O)NO)cc1` [Compound 15, 5-(2,4-dihydroxy-5-isopropylphenyl)-N-ethyl-4-(4-((3-(hydroxyamino)-3-oxopro-pylamino)methyl)phenyl)isoxazole-3-carboxamide] the same measures were 146 to 148 °C, 1000 to 10000 nM and ≤ 100 nM.
For `CCNC(=O)c1noc(-c2cc(C(C)C)c(O)cc2O)c1-c1ccc(CN(C)CCC(=O)NO)cc1` [Compound 16, 5-(2,4-dihydroxy-5-isopropylphenyl)-N-ethyl-4-(4-(((3-(hydroxyamino)-3-oxopropyl)(methyl)amino)methyl)phenyl)isoxazole-3-carboxamide] the same measures were 120 to 122 °C, ≥ 10000 nM and ≤ 100 nM.
The like results for `CCNC(=O)c1noc(-c2cc(C(C)C)c(O)cc2O)c1-c1ccc(CN(C)CCCC(=O)NO)cc1` [Compound 18, 5-(2,4-dihydroxy-5-isopropylphenyl)-N-ethyl-4-(4-(((4-(hydroxyamino)-4-oxobutyl)(methyl)amino)methyl)phenyl)isoxazole-3-carboxamide] were, in that order, 132 to 134 °C, ≥ 10000 nM and ≤ 100 nM.
For `CCNC(=O)c1noc(-c2cc(C(C)C)c(O)cc2O)c1-c1ccc(CNCCCCCC(=O)NO)cc1` [Compound 21, 5-(2,4-Dihydroxy-5-isopropylphenyl)-N-ethyl-4-(4-((6-(hydroxyamino)-6-oxohexylamino)methyl)phenyl)isoxazole-3-carboxamide], the melting point was 134 to 135 °C. Further, the IC50 in data set [1] was 1000 to 10000 nM. Besides, the half-inhibitory concentration (IC50) at HSP90 is ≤ 100 nM.
`CCNC(=O)c1noc(-c2cc(C(C)C)c(O)cc2O)c1-c1ccc(CN(C)CCCCCC(=O)NO)cc1` [Compound 22, 5-(2,4-Dihydroxy-5-isopropylphenyl)-N-ethyl-4-(4-(((6-(hydroxyamino)-6-oxohexyl)(methyl)amino)methyl)phenyl)isoxazole-3-carboxamide] displayed a melting point of 113 to 115 °C. The molecule further yielded an IC50 in data set [1] of 1000 to 10000 nM. The IC50 at HSP90 is ≤ 100 nM.
In turn, `CC(C)c1cc(-c2onc(C(=O)NCCCC(=O)NO)c2-c2ccc(CN3CCOCC3)cc2)c(O)cc1O` [Compound 25, 5-(2,4-Dihydroxy-5-isopropylphenyl)-N-(4-(hydroxyamino)-4-oxobutyl)-4-(4-(morpholinomethyl)phenyl)isoxazole-3-carboxamide] registered a melting point of 129 to 130 °C. Moreover, on HSP90, the IC50 was ≤ 100 nM.
